{"source": "patent US9833447B2", "about": "“5-HT4 receptor agonist for gastroparesis” (RAQUALIA PHARMA INC., priority 2014, dated 2017)", "key": {"[1]": {"test_system": "clonidine-induced gastroparesis model in dogs", "experiment": "Gastric emptying rates in conscious dogs, clonidine-induced gastroparesis model (acetaminophen method)", "assay_type": "in vivo, beagle dogs", "settings": "clonidine 0.01 mg/kg s.c.", "method": "Measurement of Gastric Emptying Rates in Conscious Dogs\nAll dogs are purchased from Kitayama Labes Co., Ltd. (Oriental Yeast Co., Ltd.). The animals are acclimatized to the laboratory conditions during experiments.\nDogs are fasted overnight, and then they are fed the test meal (10 mL/kg), which is ingested within 3 minutes. Blood samples are obtained at 0, 15, 30, 45, 60, 75, and 90 minutes after test meal administration. To provide a model of gastroparesis, 0.01 mg/kg of clonidine (alpha2 adrenergic agonist, Wako Pure Chemical Industries, Ltd., Osaka, Japan) is injected subcutaneously 30 minutes before test meal administration. […] Plasma is separated from the blood by centrifugation at 3,000 g for 5 min at 4° C. (himac CF15D, Hitachi Koki Co., Ltd., Tokyo, Japan). The plasma acetaminophen concentration is measured by LC-mass spectrometry.\nAliquots of dog plasma (50 microL) and 50 microL of internal standard (IS)* solution are mixed and vortexed well, and then they are diluted to a final volume of 750 microL with 50 mM ammonium acetate. As IS, [D4]4-acetamidophenol is used. Following conditioning of the solid phase extraction (SPE) 96 well plate (OASIS HLB, 10 mg/well, 30 microm, Waters Corporation, Milford, Mass., USA) with 700 microL methanol and 700 microL water in sequence, 750 microL of the plasma samples are transferred to the SPE plate for extraction. The SPE plate is then washed with 700 microL of 5% methanol. Samples are eluted twice off the SPE plate into a clean 96 deep well plate by addition of 250 microL of methanol. The eluent is then evaporated to dryness under 40° C. gentle stream of nitrogen, and reconstituted in 100 microL of acetonitrile/10 mM ammonium acetate (1/9, v/v). The samples are injected into HPLC column, and then the effluent from HPLC column is directly introduced into the turboionspray ion source, which is operated at the following conditions: * 300 ng/mL [D4]4-acetamidophenol: 10% methanol solution."}, "[2]": {"test_system": "healthy male human subjects", "experiment": "Gastric emptying rates in healthy male human subjects (13C-breath test, BreathID)", "assay_type": "in vivo", "method": "Measurement of Gastric Emptying Rates in Human Study Population\nHealthy male subjects, who aged between 18 and 55 years old and have a normal gastric emptying (GE) rate, are screened and enrolled into the study.\nSubjects are given single oral doses of Compound A at 0.6 and 3 microg. Subjects swallowed dosing solution (20 mL) of appropriate Compound A concentrations. The dosing bottle is rinsed with 20 mL of water, and this rinse is swallowed by the subjects. The subjects then swallowed 200 mL of room temperature water, resulting in a total fluid intake at dosing of 240 mL.\nGE is monitored with ^13C-breath test using the BreathiD system (Exalenz Bioscience Inc., Modin, Israel), which enables to continuously analyze the subject's breath for exhaled CO2 via a nasal cannula using molecular correlation spectrometry at the bedside. […] GE rate of solids is evaluated over the 4 hours period following ingestion of a standardized solid test meal, which are comprised of 2 slices of bread, 1 egg and 150 mL water including an egg yolk that have been mixed with 100 mg ^13C-octanoic acid (total calorific intake of 200-300 kcal). […] The parameters for GE of gastric half emptying time (GET1/2), lag phase (Tlag), gastric emptying coefficient (GEC) and gastric emptying area under the effect curve (AUEC) are automatically calculated."}, "[3]": {"test_system": "patients with gastroparesis", "experiment": "Gastric emptying rates in patients with gastroparesis (SmartPill)", "assay_type": "in vivo, human", "method": "Measurement of Gastric Emptying Rates in Patients with Gastroparesis Clinical studies in patients with gastroparesis are conducted. Effect of Compound A on gastric emptying time (GET) is confirmed with SmartPill (Registered Trademark, Given Imaging Ltd.). SmartPill is an ingestible capsule that measures pressure, pH and temperature as it travels through the gastrointestinal (GI) tract to assess GI motility. The SmartPill motility monitoring test can be performed at a clinic or physician's office to evaluate motility disorders like gastroparesis (a condition in which the contents of the stomach empty too slowly) and chronic constipation. An improved gastric emptying time and colonic transit time are observed in the clinical studies."}}, "note": "Entries after “also recorded” stand apart in the source; their conditions may differ.", "data": [{"smiles": "COc1cc(N)c(Cl)cc1C(=O)NC1CCN(CCCOc2ccc(F)cc2)CC1OC", "note": "(stereo not shown) [Cisapride, cisapride, reference compound]", "values": [{"measurement": "Effect on delayed gastric emptying induced by clonidine (plasma acetaminophen)", "setting": "[1]; cisapride 1, 3 mg/kg p.o.", "value": "reversed delayed gastric emptying"}]}, {"smiles": "O=C(O)C1(CN2CCC(COc3noc4cccc(OCC(F)(F)F)c34)CC2)CCOCC1", "note": "[Compound A, 4-{[4-({[4-(2,2,2-trifluoroethoxy)-1,2-benzisoxazol-3-yl]-oxy}methyl)piperidin-1-yl]methyl}tetrahydro-2H-pyran-4-carboxylic acid]", "values": [{"measurement": "Effect on delayed gastric emptying induced by clonidine (plasma acetaminophen)", "setting": "[1]; Compound A 0.3 microg/kg p.o.", "value": "significantly restored delayed gastric emptying induced by clonidine (0.01 mg/kg) to the normal levels; also recorded: equivalent to that of cisapride (1 mg/kg, p.o.)"}, {"measurement": "Severe Adverse Events and undesirable adverse events including QT/QTc prolongation", "setting": "[2]; even at supratherapeutic doses, human healthy subjects", "value": "No Severe Adverse Events (SAEs) and undesirable adverse events"}, {"measurement": "Absolute change from baseline in gastric half emptying time (GET1/2)", "setting": "[2]; single oral doses 0.6 and 3 microg, healthy male human subjects", "value": "clearly observed; also recorded: improved"}, {"measurement": "Colonic transit time", "setting": "[3]", "value": "improved"}, {"measurement": "Gastric emptying time (GET)", "setting": "[3]", "value": "improved"}]}, {"smiles": "Clc1cccc(Cl)c1N=C1NCCN1", "note": "[clonidine, reference compound]", "values": [{"measurement": "Plasma APAP concentration at 60 min after meal administration", "setting": "[1]; gastroparesis model induction", "value": "significantly decreased"}]}]}
